From ChEMBL document CHEMBL4680193, “Isoindoline scaffold-based dual inhibitors of HDAC6 and HSP90 suppressing the growth of lung cancer in vitro and in vivo” (Eur J Med Chem, 2020) come the findings set out here.

Assay [1] deals with NCI-H1975. Briefly: cells. In kind it is functional. The note with it: Homo sapiens, time 48 hrs.
For assay [2], the target named is Heat shock protein HSP 90-alpha (Homo sapiens, UniProt P07900). The assay is described as follows: Inhibition of HSP90a (unknown origin).
A further assay has as its target Histone deacetylase. In kind it is tissue-based, Homo sapiens. The following applies: hela.
Another assay deals with Histone deacetylase 1 (Homo sapiens, UniProt Q13547). The assay is described as follows: Inhibition of recombinant human C-terminal FLAG-His-tagged HDAC1 (1 to 482 residues) expressed in Sf21 cells using RHK-K(Ac)-AMC as substrate incubated for 60 mins by fluorimetry analysis.
Sequence of Histone deacetylase 1 (Q13547 whole entry, the tested form may be a part): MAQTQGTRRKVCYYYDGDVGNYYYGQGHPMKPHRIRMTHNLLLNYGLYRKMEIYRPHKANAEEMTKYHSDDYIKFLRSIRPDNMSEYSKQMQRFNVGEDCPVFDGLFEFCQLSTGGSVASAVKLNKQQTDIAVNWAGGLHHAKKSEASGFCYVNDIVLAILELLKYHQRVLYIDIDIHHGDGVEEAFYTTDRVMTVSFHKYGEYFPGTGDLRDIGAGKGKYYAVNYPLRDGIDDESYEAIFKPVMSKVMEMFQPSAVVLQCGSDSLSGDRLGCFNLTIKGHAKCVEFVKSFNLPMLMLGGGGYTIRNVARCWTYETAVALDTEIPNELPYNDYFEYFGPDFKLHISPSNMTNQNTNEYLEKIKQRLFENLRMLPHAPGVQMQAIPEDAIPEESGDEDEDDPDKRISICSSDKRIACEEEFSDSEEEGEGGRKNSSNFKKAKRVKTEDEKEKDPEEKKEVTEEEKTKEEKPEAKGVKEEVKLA
The target in another assay is Histone deacetylase 3 (Homo sapiens, UniProt O15379).
Sequence of Histone deacetylase 3 (O15379 whole entry): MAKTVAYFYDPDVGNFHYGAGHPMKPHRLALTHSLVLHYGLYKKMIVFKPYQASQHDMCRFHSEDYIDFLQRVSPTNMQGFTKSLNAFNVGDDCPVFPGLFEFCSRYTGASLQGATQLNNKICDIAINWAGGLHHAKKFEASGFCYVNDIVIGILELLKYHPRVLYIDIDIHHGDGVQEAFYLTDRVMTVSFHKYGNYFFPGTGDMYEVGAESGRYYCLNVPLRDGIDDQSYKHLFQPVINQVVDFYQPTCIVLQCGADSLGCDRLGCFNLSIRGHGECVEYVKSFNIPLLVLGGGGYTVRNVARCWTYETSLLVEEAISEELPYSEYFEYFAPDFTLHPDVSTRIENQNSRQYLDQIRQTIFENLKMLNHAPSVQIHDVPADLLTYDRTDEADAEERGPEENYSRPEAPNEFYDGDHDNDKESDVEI
The target in assay [3] is T1, Protein deacetylase HDAC6 (Homo sapiens, UniProt Q9UBN7).
T1 sequence (Q9UBN7 whole entry): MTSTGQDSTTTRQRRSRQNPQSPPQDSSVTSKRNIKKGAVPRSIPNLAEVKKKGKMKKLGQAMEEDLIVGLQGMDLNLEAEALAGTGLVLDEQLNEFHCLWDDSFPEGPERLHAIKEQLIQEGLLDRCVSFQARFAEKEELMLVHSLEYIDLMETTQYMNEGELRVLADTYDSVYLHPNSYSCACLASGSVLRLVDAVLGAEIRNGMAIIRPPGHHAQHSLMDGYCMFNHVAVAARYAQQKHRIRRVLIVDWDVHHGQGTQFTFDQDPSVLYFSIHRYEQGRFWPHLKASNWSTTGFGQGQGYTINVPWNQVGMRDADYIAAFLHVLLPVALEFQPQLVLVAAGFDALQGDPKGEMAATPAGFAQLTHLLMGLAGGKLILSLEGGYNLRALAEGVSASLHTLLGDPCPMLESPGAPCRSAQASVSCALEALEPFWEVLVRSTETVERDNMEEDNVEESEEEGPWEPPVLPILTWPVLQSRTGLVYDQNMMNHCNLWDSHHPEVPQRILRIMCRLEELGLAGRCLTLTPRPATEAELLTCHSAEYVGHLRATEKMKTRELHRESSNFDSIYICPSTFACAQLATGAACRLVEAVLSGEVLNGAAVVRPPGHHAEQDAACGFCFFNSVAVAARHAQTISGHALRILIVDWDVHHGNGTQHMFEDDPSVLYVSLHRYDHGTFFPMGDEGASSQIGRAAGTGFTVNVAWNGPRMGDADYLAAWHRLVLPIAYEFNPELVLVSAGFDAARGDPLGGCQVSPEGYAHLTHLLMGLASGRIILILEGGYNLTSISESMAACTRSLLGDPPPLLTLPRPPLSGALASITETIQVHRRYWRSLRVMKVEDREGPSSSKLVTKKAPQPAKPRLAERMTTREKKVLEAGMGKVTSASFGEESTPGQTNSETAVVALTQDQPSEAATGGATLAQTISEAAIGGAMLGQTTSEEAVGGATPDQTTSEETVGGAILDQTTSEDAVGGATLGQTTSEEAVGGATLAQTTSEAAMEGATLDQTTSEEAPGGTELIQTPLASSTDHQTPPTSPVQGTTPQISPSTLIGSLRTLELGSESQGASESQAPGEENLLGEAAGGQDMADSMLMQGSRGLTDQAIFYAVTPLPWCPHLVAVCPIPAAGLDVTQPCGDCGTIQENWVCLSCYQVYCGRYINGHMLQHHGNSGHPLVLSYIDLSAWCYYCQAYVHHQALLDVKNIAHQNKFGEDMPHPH
The assay is described as follows: Inhibition of recombinant human HDAC6 using RHK-K(Ac)-AMC as substrate by fluorescence based assay.

Assay [4] is filed under the species Homo sapiens. Briefly: Selectivity index, ratio of IC50 for recombinant human C-terminal FLAG-His-tagged HDAC1 (1 to 482 residues) expressed in Sf21 cells to IC50 for recombinant human HDAC6.
The species named for assay [5] is Homo sapiens. The assay is described as follows: Selectivity index, ratio of IC50 for recombinant human HDAC3 to IC50 for recombinant human HDAC6.
Assay [6] is filed under the species Homo sapiens. The assay is described as follows: Selectivity index, ratio of IC50 for recombinant human HDAC8 to IC50 for recombinant human HDAC6.
Assay [7] deals with T2, Protein deacetylase HDAC6 (Homo sapiens) (UniProt Q9UBN7).
T2 sequence (whole entry): T1 sequence (Q9UBN7 whole entry)
Briefly: Inhibition of HDAC6 in human NCI-H1975 cells assessed as increase in acetylated alpha tubulin level after 24 hrs by Western blot analysis. In kind it is cell-based. The following applies: dose 0.1-3 µM. In general terms: In western blotting, separated proteins are transferred to a membrane and probed.

Assay [8] addresses T3, Heat shock protein HSP90 (Homo sapiens) (UniProt P07900+P08238). The assay is described as follows: Inhibition of HSP90 in human NCI-H1975 cells assessed as upregulation of HSP70 expression at 0.03 to 0.3 uM measured upto 24 hrs by Western blot analysis. It is filed as cell-based. The note with it: dose 0.03-0.3 µM, time hrs <=24.
Assay [9] concerns the target T3, Heat shock protein HSP90 (Homo sapiens). The assay is described as follows: Inhibition of HSP90 in human NCI-H1975 cells assessed as decrease in Akt Ser473 phosphorylation at 3 uM measured after 6 hrs by Western blot analysis. It is filed as cell-based.
For assay [10] the target is unchanged. The assay is described as follows: Inhibition of HSP90 in human NCI-H1975 cells assessed as decrease in STAT3 Tyr705 phosphorylation at 3 uM measured after 12 hrs by Western blot analysis. It is filed as cell-based.
Assay [11] relates to NCI-H1975. Briefly: Induction of cell cycle arrest in human NCI-H1975 cells assessed as increase in subG1 phase at 0.1 to 3 uM incubated for 48 hrs by PI staining based flow cytometry analysis. In kind it is functional. The note with it: dose 0.1-3 µM. Background: A flow cytometer gives signals particle by particle.
In assay [12] the test system is NCI-H1975. Briefly: Induction of apoptosis in human NCI-H1975 cells assessed as increase in caspase 3 activation incubated for 48 hrs by PI staining based Western blot analysis. In kind it is functional, cell-based. The note with it: dose 0.1-3 µM.
Assay [13] has as its system NCI-H1975. The assay is described as follows: Induction of apoptosis in human NCI-H1975 cells assessed as increase in caspase 8 activation incubated for 48 hrs by PI staining based Western blot analysis. It is filed as functional, cell-based. The following applies: dose 0.1-3 µM.
In assay [14] the test system is NCI-H1975. Briefly: Induction of apoptosis in human NCI-H1975 cells assessed as increase in caspase 9 activation incubated for 48 hrs by PI staining based Western blot analysis. It is filed as functional, cell-based. The note with it: dose 0.1-3 µM.
Assay [15] relates to NCI-H1975. The assay is described as follows: Induction of apoptosis in human NCI-H1975 cells assessed as increase in PARP activation incubated for 48 hrs by PI staining based Western blot analysis. In kind it is functional, cell-based. The following applies: dose 0.1-3 µM.
Assay [16] relates to NCI-H1975. Briefly: Induction of apoptosis in human NCI-H1975 cells assessed as increase in gammaH2AX activation incubated for 48 hrs by PI staining based Western blot analysis. It is filed as functional, cell-based. The note with it: dose 0.1-3 µM.
In assay [17] the test system is NCI-H1975. The assay is described as follows: Antitumor activity against human NCI-H1975 cells xenografted in BALB/c mouse assessed as reduction in tumor growth at 100 mg/kg, ip administered for 2 weeks and measured after 2 week relative to control. It is filed as functional. The note with it: 336 h, read-out: TGI. On the technique in general: A xenograft is tissue or cells of one species grown in another, often human tumour cells in immunodeficient mice.

The subject of assay [18] is NCI-H1975. Briefly: Antitumor activity against human NCI-H1975 cells xenografted in BALB/c mouse assessed as reduction in tumor growth at 50 mg/kg, ip administered for 2 weeks in presence of afatinib and measured after 2 week relative to control. In kind it is functional. The following applies: 336 h, read-out: TGI.
For assay [19], the system named is NCI-H1975. Briefly: Inhibition of IFN-gamma-induced PD-L1 in human NCI-H1975 cells incubated for 48 hrs by Western blot analysis. In kind it is functional, cell-based. The note with it: dose 0.3-3 µM.
For assay [20], the system named is NCI-H1975. Briefly: Inhibition of IFN-gamma-induced PD-L1 in human NCI-H1975 cells at 0.3 uM incubated for 48 hrs by Flow cytometry analysis. In kind it is functional, cell-based.

Structures are written as SMILES. Active and inactive are the calls of the source. The calls are words filed in the database; no cut-off is given here.

The term GI50 denotes the concentration giving 50% growth inhibition. Higher therefore signals less potent growth inhibition. As a reminder, the IC50 is the concentration at which inhibition is half-maximal. Turning to `CC(C)c1cc(C(=O)N2Cc3ccc(NC(=O)CCCCCCCCC(=O)NO)cc3C2)c(O)cc1O`, the GI50 in the assay on NCI-H1975 [1] is 520 nM. The IC50 in assay [2] came out at 46.8 nM; at Histone deacetylase, 388.8 nM; on Histone deacetylase 1, 1880 nM; against Histone deacetylase 3 it was 1310 nM; in assay [3], 4.32 nM. The Ratio IC50 in the assay filed under Homo sapiens [4] was found to be 434; in the assay listed under Homo sapiens [5] it was 303; in the assay listed under Homo sapiens [6], 861. For the same molecule, the inhibition entry (in [7]; in the assay on NCI-H1975 [19]) was “Dose-dependent effect” each time. Further, the inhibition entry (in assay [8]; in assay [9]; in assay [10]; in the assay with NCI-H1975 [20]) was “Active” in each case. Further, the result in the assay with NCI-H1975 [11] was Active. The Activity entry with NCI-H1975 [12], in the assay with NCI-H1975 [13], with NCI-H1975 [14], in the assay on NCI-H1975 [15] and in the assay with NCI-H1975 [16] was “Dose-dependent effect” each time. For the same molecule, the inhibition in vivo at 100 mg/kg in the assay with NCI-H1975 [17] is 69.7%. In addition, in the assay on NCI-H1975 [18], the inhibition in vivo at 50 mg/kg came out at 72.3%.
